The results in this text go back to patent EP4772498A1, “COMPOUND ACTING AS ANDROGEN RECEPTOR ANTAGONIST” (China Pharmaceutical University, priority 2023, dated 2025).

Marks after values point to notes of the source that are not given here. Bounds are passed on as bounds.

The subject of data set [1] is AR. The experiment in a line: AR antagonistic activity: AR / PSA ARE1 luciferase reporter gene assay in transfected LNCaP cells stimulated with 1 nM DHT. The data set is classed as cell-based. Conditions: 24 h, normalised to 0.1% DMSO and 30 µM enzalutamide. The procedure:
LNCaP cells were plated in a 6-well plate (Corning, 3516) at 8 × 10^5 cells/well.
AR and PSA ARE1 reporter gene plasmids (Bio (Anhui) Co., Ltd.) and transfection reagents Lipo3000 and P3000 (Lipofectamine™ 3000) (a total of 2.5 µg of plasmids, i.e., 1.25 µg of each plasmid, were added to each well) were left to stand and incubated for 10 min, and then 250 µL of the above transfection reagents were added dropwise to each well containing cells and co-incubated with the cells for 24 h.
The cells were washed with PBS, and the medium was replaced with a phenol red-free RPMI-1640 medium containing 5% carbon adsorption serum (or 10% fetal bovine serum and 1% penicillin and streptomycin). The cells were re-plated onto a 96-well plate (Corning, 3603) according to the number of cells plated (2 × 10^4 cells/well).
After cell plating, the test compound (or DMSO or positive control) was added. After at least 30 min of incubation, DHT (dihydrotestosterone) was added to the culture system at a final concentration of 1 nM. The culture system was then incubated in a carbon dioxide incubator.
Test compound: 10 mM stock solution, with a final concentration of 3.3 µM or 6.7 µM. Negative control: 0.1% DMSO. Positive control: 30 µM enzalutamide.
After the test compound (or DMSO or positive control) and DHT were co-incubated for 24 h, the luciferase signal was detected using the Vazyme Bright-Lite substrate. The medium was added at 70 µL/well, and the plate was shaken for 2 min, followed by reading of the luciferase signal.
Assay robustness was confirmed using the DMSO and low concentration control data: Ave_H = Ave(DMSO) [formula] Ave_L = Ave (30μMenzalutamide) [formula] Inhibition rate (%) = (Ave_H−Sample)/(Ave_H−Ave_L) × 100% [formula] Ave_H: the measurement of the negative control (0.1% DMSO); Ave_L: the measurement of the positive control (30 µM enzalutamide); Sample: the measurement of the test compound; The corresponding activity test results for the test compounds were specified in Table 1. Table 1. Corresponding activity test results for compounds disclosed herein

A short description of data set [2]: Metabolic stability assay in liver microsomes. As to conditions: human liver microsomes, pH 7.4, human liver microsome 0.5 mg/mL, 1 mM NADPH, compound 1 µM, 37 °C; for microsomal CLint at 1 µM: read-out: In vitro Clint; for half-life at 1 µM: read-out: In vitro T1/2. Format: in vitro ADME. As to the method:
The metabolic stability of compounds disclosed herein in liver microsomes was determined using the following method.
• 1. Liver microsome source: Human liver microsome (Corning, 452117) • 2. Na2HPO4 (Tianjin Guangfu Fine Chemical Research Institute, 20180130) • 3. KH2PO4 (Tianjin Guangfu Fine Chemical Research Institute, 20180920) • 4. MgCl2 (Tianjin Guangfu Fine Chemical Research Institute, 20191216) • 5. NADPH (Solarbio, 1216C022) • 6. Positive control compound verapamil (Sigma, MKBV4993V) • 7. AB Sciex Triple Quad 4000 liquid chromatography-mass spectrometry system
1. Preparation of 100 mM phosphate-buffered saline (PBS): 7.098 g Na2HPO4 was dissolved in 500 mL of purified water by sonication to give solution A. 3.400 g of KH2PO4 was dissolved in 250 mL of purified water by sonication to give solution B. Solution A was placed on a stirrer, and solution B was added slowly until the pH reached 7.4, so as to give a 100 mM PBS buffer. 2. Preparation of reaction system The reaction system was prepared according to the table below.
3. The reaction system was pre-incubated in a 37 °C water bath for 10 min. 40 µL of 10 mM NADPH solution (NADPH was dissolved in 100 mM phosphate-buffered saline) was added to the reaction system, with the final concentration of NADPH being 1 mM. A negative control was prepared by replacing the NADPH solution with 40 µL of phosphate-buffered saline. The negative control was used to exclude the effect of the chemical stability of the compound itself. 4. The reaction was initiated by adding 4 µL of 100 µM compound disclosed herein or positive control compound verapamil to the reaction system at a final concentration of 1 µM. 5. After 0.5 min, 15 min, 30 min, 45 min, and 60 min of mixing well by using a vortex oscillator, 50 µ L of the incubated sample was taken out, and glacial acetonitrile containing an internal standard of 4 folds was added to terminate the reaction. The sample was centrifuged at 3,220 g for 45 min. 90 µL of the supernatant was transferred to a feeding plate after the centrifugation was completed, and 90 µL ultrapure water was added. The mixture was well mixed for LC-MS/MS analysis.
All data were calculated by using Microsoft Excel software. The peak areas were determined by using an extracted ion chromatogram. The in vitro half-life (T1/2) of the test compound was determined by linear fitting of the natural logarithm of the elimination proportion of the test compound over time. In vitro half-life (T1/2) was calculated by the slope k: in vitro T1/2 = 0.693/k [formula]
The in vitro intrinsic clearance (in vitro CLint, unit: µL/min/mg protein) was calculated using the following formula: in vitro CLint = k × volume of incubation solution/enzyme protein content; [formula]
Background: Microsomes from liver hold many membrane-bound enzymes, among them those of drug oxidation.

In data set [3] the test system is C57BL/6 mice. Kind of data set: In vivo pharmacodynamic study 1: hair growth scoring in shaved telogen-phase mice, topical treatment. Conditions: for Score (mean±SD): hair growth score 0-5, topical twice daily, compound 001 2 wt%, compound 008 0.5 wt%.
From the text: Vehicle: propylene glycol/ethanol (30:70, v/v)
Animal information: C57BL/6 mice (male, aged 4-6 weeks, about 18-20 g), purchased from Shanghai Lingchang Biotechnology Co., Ltd. The mice were bred in an SPF-level environment within independently ventilated cages.
Skin preparation: After 1-2 weeks of acclimation, the hairs in a 2 cm × 3 cm area of the back of the mice were shaved to confirm that the hairs of the mice were in the telogen phase (the skin was pink) and the skin was not damaged.
Treatment: On day 3 after shaving, the mice were grouped for treatment. […] The control group received the control solvent. 12 mice were in each group.
The mice were weighed on days 10, 13, 18, 21, 25, and 30, and the hair growth state was scored and photographed.
The scoring criteria are as follows: • 0: no growth, with pink skin in the shaved area; • 1: the skin in the shaved area was gray (an increase of less than 20%); • 2: the skin in the shaved area was black (more than 20% but less than 40%); • 3: the skin in the shaved area was black with a little hair growth (more than 40% but less than 60%); • 4: the skin in the shaved area was black with partial hair growth (more than 60% but less than 80%); • 5: basically complete hair growth (80%-100% growth) in the shaved area.
[4] abbreviates: treatment concentration: 3.3 µM.
The mark [5] stands for this setting: treatment concentration: 6.7 µM.
The mark [6] stands for this setting: at the investigated doses (001 2%, 008 0.5%, BID topical).

On to `CCCCOC(=O)C(O)(C(=O)Nc1cnc(C#N)c(C(F)(F)F)c1)C(F)(F)F` (stereo not shown) [Compound 011, Butyl 2-[[6-cyano-5-(trifluoromethyl)-pyridin-3-yl]carbamoyl]-3,3,3-trifluoro-2-hydroxypropanoate], for which the “AR antagonism (inhibition rate, %)” value in data set [1] (setting [4]) was 88.48^a %.
For `CCCCOC(=O)C(C)(O)C(=O)Nc1ccc(Cl)c(C(F)(F)F)c1` (stereo not shown) [Compound 023, Butyl 3-[4-chloro-3-(trifluoromethyl)anilino]-2-hydroxy-2-methyl-3-oxo-propanoate], in data set [1] (setting [4]), the “AR antagonism (inhibition rate, %)” value is listed as 52.26^a %.
The same measure, in the same setting: next, `CCCCOC(=O)[C@@](C)(O)C(=O)Nc1cnc(C#N)c(C(F)(F)F)c1` [Compound 006, butyl (2S)-3-[[6-cyano-5-(trifluoromethyl)pyridin-3-yl]amino]-2-hydroxy-2-methyl-3-oxopropanoate]: 93.92^a %.
For `CCOC(=O)[C@](C)(O)C(=O)Nc1cnc(C#N)c(C(F)(F)F)c1` [Compound 003, ethyl (2R)-3-[[6-cyano-5-(trifluoromethyl)pyridin-3-yl]amino]-2-hydroxy-2-methyl-3-oxopropanoate], in data set [1] (setting [4]), the “AR antagonism (inhibition rate, %)” value is given as 75.26^a %. Moreover, in data set [2], the microsomal CLint at 1 µM was found to be 60.4 µL/min/mg and the half-life at 1 µM worked out at 22.9 min.
`CSc1cc(NC(=O)C(C)(O)C(=O)OC(C)(C)C)cnc1C#N` (stereo not shown) [Compound 049, tert-Butyl 3-[(6-cyano-5-methylthiopyridin-3-yl)amino]-2-hydroxy-2-methyl-3-oxo-propanoate]: in data set [1] (setting [5]), the “AR antagonism (inhibition rate, %)” value is on record as 90.02^b %.
Turning to `CCOC(=O)C(O)(C(=O)Nc1ccc(C#N)c(SC)c1F)C(F)(F)F` (stereo not shown) [Compound 015, Ethyl 2-[(4-cyano-2-fluoro-3-methylsulfanyl-phenyl)carbamoyl]-3,3,3-trifluoro-2-hydroxy-propanoate], in data set [1] (setting [4]), the “AR antagonism (inhibition rate, %)” value is 65.06^a %.
For the compound `CCOC(=O)[C@@](C)(O)C(=O)Nc1cnc(C#N)c(C(F)(F)F)c1` [Compound 002, Ethyl (2S)-3-[[6-cyano-5-(trifluoromethyl)pyridin-3-yl]amino]-2-hydroxy-2-methyl-3-oxopropanoate], the “AR antagonism (inhibition rate, %)” value in data set [1] (setting [4]) is recorded as 89.16^a %. Besides, in data set [2], the microsomal CLint at 1 µM is 32.5 µL/min/mg and the half-life at 1 µM amounted to 42.6 min.
Consider `CCCOC(=O)[C@@](C)(O)C(=O)Nc1cnc(C#N)c(C(F)(F)F)c1` [Compound 004, Propyl (2S)-3-[[6-cyano-5-(trifluoromethyl)-pyridin-3-yl]amino]-2-hydroxy-2-methyl-3-oxopropanoate], for which, in data set [1] (setting [4]), the “AR antagonism (inhibition rate, %)” value is given as 87.30^a %.
On to `CC(C)(C)OC(=O)C(C)(O)C(=O)Nc1cnc(C#N)c(C(F)(F)F)c1` (stereo not shown) [Compound 014, tert-Butyl 3-[[6-cyano-5-(trifluoromethyl)-pyridin-3-yl]amino]-2-hydroxy-2-methyl-3-oxopropanoate], for which the “AR antagonism (inhibition rate, %)” value in data set [1] (setting [4]) is 90.3^a %.
Turning to `CCOC(=O)C(C)(O)C(=O)Nc1cnc(C#N)c(SC)c1` (stereo not shown) [Compound 016, Ethyl 3-[(6-cyano-5-methylthio-pyridin-3-yl)amino]-2-hydroxy-2-methyl-3-oxopropanoate], in data set [2], the microsomal CLint at 1 µM amounted to 102 µL/min/mg and the half-life at 1 µM was found to be 13.6 min.
With `CCOC(=O)C(O)(C(=O)Nc1cnc(C#N)c(C(F)(F)F)c1)C(F)(F)F` (stereo not shown) [Compound 008, Ethyl 2-[[6-cyano-5-(trifluoromethyl)-pyridin-3-yl]carbamoyl]-3,3,3-trifluoro-2-hydroxypropanoate], the “AR antagonism (inhibition rate, %)” value in data set [1] (setting [4]) is recorded as 86.95^a %. Also, the microsomal CLint at 1 µM in data set [2] came to 35.5 µL/min/mg. The half-life at 1 µM in data set [2] is 39.1 min. In addition, the “Score (mean±SD)” value in data set [3] (Day 0) is reported as 0; in data set [3] (Day 10), 0.4±0.5; in data set [3] (Day 13) it was 0.6±0.5; in data set [3] (Day 18) it was 1.0±0.6; in data set [3] (Day 21), 1.1±0.7; in data set [3] (Day 25), 1.9±1.5. Besides, the “Score (mean±SD)” value in data set [3] (Day 30) is listed as 2.8±2.1. In addition, the “impact on the body weight of the mice” value in data set [3] (setting [6]) is “no significant impact”. For the same compound, in data set [3] (setting [6]), the “signs of erythema, dehiscence, desquamation, and the like on the skin” value is on record as “no signs”. Besides, in data set [3] (compound 001 at 2%, compound 008 at 0.5%, BID topically at 20 µL/cm^2), the “effect on mouse hair growth” value is “significant promoting effect”. Moreover, the “day of the treatment from which hair growth was significantly promoted” value in data set [3] (vs. vehicle control, 001 P < 0.01, 008 P < 0.05) is at least 13 days.
On to `COc1cc(NC(=O)C(C)(O)C(=O)OC(C)(C)C)cnc1C#N` (stereo not shown) [Compound 048, tert-Butyl 3-[(6-cyano-5-methoxypyridin-3-yl)amino]-2-hydroxy-2-methyl-3-oxo-propanoate], for which the “AR antagonism (inhibition rate, %)” value in data set [1] (setting [5]) was 62.18^b %.
For the compound `CCCOC(=O)[C@](C)(O)C(=O)Nc1cnc(C#N)c(C(F)(F)F)c1` [Compound 005, propyl (2R)-3-[[6-cyano-5-(trifluoromethyl)-pyridin-3-yl]amino]-2-hydroxy-2-methyl-3-oxopropanoate], the “AR antagonism (inhibition rate, %)” value in data set [1] (setting [4]) is 58.52^a %.
Take `CCCOC(=O)C(O)(C(=O)Nc1cnc(C#N)c(C(F)(F)F)c1)C(F)(F)F` (stereo not shown) [Compound 010, Propyl 2-[[6-cyano-5-(trifluoromethyl)-pyridin-3-yl]carbamoyl]-3,3,3-trifluoro-2-hydroxypropanoate]: the “AR antagonism (inhibition rate, %)” value in data set [1] (setting [4]) is given as 82.14^a %.
As for `CCCCOC(=O)C(C)(O)C(=O)Nc1ccc(C#N)c(C(F)(F)F)c1` (stereo not shown) [Compound 022, Butyl 3-[4-cyano-3-(trifluoromethyl)anilino]-2-hydroxy-2-methyl-3-oxo-propanoate], in data set [1] (setting [4]), the “AR antagonism (inhibition rate, %)” value is reported as 81.05^a %.
The same measure, in the same setting: next, `CCOC(=O)c1cccc(NC(=O)C(C)(O)C(=O)Nc2cnc(C#N)c(C(F)(F)F)c2)n1` (stereo not shown) [Compound 032, Ethyl 6-(3-((6-cyano-5-(trifluoromethyl)pyridin-3-yl)amino)-2-hydroxy-2-methyl-3-oxopropanamido)picolinate]: 47.7^a %.
